# Measurements reported in ChEMBL document CHEMBL1201862, “PubChem BioAssay data set” (2004).
# Activity calls are given as the source filed them.
# How the values were obtained:
# [1] = inhibitors of firefly luciferase expression or activity, dose response, H4 neuroglioma cells, luminescence (AID 1990); type: functional, cell-based
# [2] = luciferase reporter signal reduction – luminescence, H4-C neuroglioblastoma cells, dose response (AID 2458); type: functional, cell-based;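 note: H4 neuroglioblastoma cells stably carrying a luciferase reporter gene fusion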
# cells = type: functional, cell-based
# [3] = Luminescence Cell-Based Dose Response HTS to Identify Inhibitors of 5'UTR Stem-Loop Driven Prion Protein mRNA Translation in H4 Neuroglioblastoma Cells. [Related pubchem assays: 1827 (Project Summary), 1813 (Primary HTS)]; type: functional
# [4] = molecular target: T1, Heat shock factor protein 1 (Mus musculus, UniProt P38532); test: inhibition of MG132-induced HSE-luciferase signal, confirmation, cell-based, NIH3T3, luminescence, dose retest (AID 2382); type: functional;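 note: NIH3T3 fibroblasts with HSF1-driven luciferase reporter stressed by proteasome inhibitor MG132; luminescence from HSF1-driven luciferase expression after 8 hours of MG132 stress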
# T1 sequence (P38532 whole entry): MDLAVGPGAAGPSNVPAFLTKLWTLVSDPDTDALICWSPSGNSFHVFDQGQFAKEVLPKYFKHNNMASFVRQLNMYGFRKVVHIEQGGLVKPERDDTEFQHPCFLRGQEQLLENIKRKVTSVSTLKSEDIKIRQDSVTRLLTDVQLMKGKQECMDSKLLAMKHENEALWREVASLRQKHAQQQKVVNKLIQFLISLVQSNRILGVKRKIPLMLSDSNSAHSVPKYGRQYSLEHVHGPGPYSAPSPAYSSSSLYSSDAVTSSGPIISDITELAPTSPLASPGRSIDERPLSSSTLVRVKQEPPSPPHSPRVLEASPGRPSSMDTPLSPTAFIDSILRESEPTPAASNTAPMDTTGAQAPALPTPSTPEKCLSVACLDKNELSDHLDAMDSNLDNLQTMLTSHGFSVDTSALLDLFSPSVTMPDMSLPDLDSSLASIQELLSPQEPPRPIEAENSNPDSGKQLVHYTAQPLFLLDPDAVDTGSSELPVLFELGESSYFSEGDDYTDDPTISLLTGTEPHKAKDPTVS
# [5] = inhibitors of SNCA 5'UTR-driven reporter translation, confirmation, H4 neuroglioma cells, luminescence (AID 1988); type: functional, cell-based
# [6] = Luminescence-based counterscreen assay for KLF5 inhibitors: dose response cell-based high throughput screening assay to identify cytotoxic compounds using the IEC-6 intestinal epithelial cell line. [Related pubchem assays: 1700 (Primary screen.), 1834 (Confirmation screen.), 1858 (Summary AID.), 1905 (Counterscreen.)]; type: functional
# [7] = inhibitors of SNCA 5'UTR-driven translation, confirmation, luminescence, H4 neuroglioblastoma cells, dose confirmation (AID 2454); type: functional, cell-based;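 note: H4 neuroglioblastoma cells carrying an alpha-synuclein 5'UTR luciferase reporter; potency for inhibition of the luciferase signal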
# [8] = molecular target: FAD-linked sulfhydryl oxidase ALR (Homo sapiens, UniProt P55789); test: inhibitors of human ALR sulfhydryl oxidase, dose response, biochemical, H2O2 detection, luminescence, cherry-pick (AID 493248)
# [9] = inhibitors of HIV Env-driven cell fusion, dose response, cherry-pick (AID 652057); type: functional, cell-based
# [10] = ZM109 Env clade C HIV-1 fusion inhibitors, dose response, HeLa effector, CEM target cells, luciferase, cherry-pick (AID 652058); type: functional, cell-based
# Paired box protein Pax-8 = Paired box protein Pax-8 (Homo sapiens, UniProt Q06710); test: inhibitors of PAX8-driven TPO luciferase reporter, dose response, RMG-I cells, cherry-pick (AID 687027); type: functional, cell-based;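 note: luciferase reporter driven by Pax8 target thyroperoxidase promoter measured by SteadyGlo luminescence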
# Chain of Paired box protein Pax-8 (Q06710 whole entry, the tested form may be a part): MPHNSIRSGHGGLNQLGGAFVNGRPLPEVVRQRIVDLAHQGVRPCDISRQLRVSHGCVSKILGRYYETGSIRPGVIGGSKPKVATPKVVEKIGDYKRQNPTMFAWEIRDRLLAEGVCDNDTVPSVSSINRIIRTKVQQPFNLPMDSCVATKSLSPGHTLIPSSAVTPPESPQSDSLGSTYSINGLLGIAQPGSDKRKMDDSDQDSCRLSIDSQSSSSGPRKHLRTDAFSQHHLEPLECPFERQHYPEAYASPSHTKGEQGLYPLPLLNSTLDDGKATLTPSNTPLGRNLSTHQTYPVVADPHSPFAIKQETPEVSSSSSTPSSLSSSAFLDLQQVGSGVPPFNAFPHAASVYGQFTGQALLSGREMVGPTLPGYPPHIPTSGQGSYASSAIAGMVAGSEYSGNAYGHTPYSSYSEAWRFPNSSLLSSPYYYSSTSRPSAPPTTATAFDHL
# [11] = off-target signal loss in HeLa-CEM21 co-culture – HeLa F-luc CTL cells, cherry-picked, counter-screen for HIV-1 Env fusion inhibitor project, dose response (AID 652040); type: functional, cell-based;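 note: potency for signal decrease marking cytotoxic or nonspecific inhibition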
# [12] = inhibitors of clade B AD8 Env fusion, dose response, cell-based, cherry-pick (AID 652062); type: functional;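 note: luciferase signal from cell-cell fusion driven by HIV-1 clade B AD8 Env; potency is for inhibitors of fusion seen as a drop in luminescence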
# [13] = A549 cell cytotoxicity, dose response, cytotoxicity control, plate reader, cherry-pick, antagonist series (AID 743412); type: functional, cell-based
# [14] = LGR2 antagonists, dose response, cell-based, HEK293, CRE-luciferase reporter, cherry pick, set 2 (AID 743343); type: functional;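 note: transfected cells were stimulated with diluted bursicon conditioned medium after compound addition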
# [15] = MC4R antagonists, dose response, counter-screen for LGR2 antagonist project, cell-based, plate reader, cherry pick (AID 743444); type: functional;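 note: transfected HEK 293 cells stimulated with alpha-MSH peptide; potency of inhibitors of the alpha-MSH evoked signal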
# [16] = HEK293 cell cytotoxicity, dose response, cytotoxicity control, plate reader, cherry-picked samples (AID 743446); type: functional, cell-based
# Hexokinase HKDC1 = Hexokinase HKDC1 (Homo sapiens, UniProt Q2TB90); test: HKDC1 hexokinase inhibitors, dose response, biochemical, W721R variant (AID 504729); type: functional
# Chain of Hexokinase HKDC1 (Q2TB90 whole entry): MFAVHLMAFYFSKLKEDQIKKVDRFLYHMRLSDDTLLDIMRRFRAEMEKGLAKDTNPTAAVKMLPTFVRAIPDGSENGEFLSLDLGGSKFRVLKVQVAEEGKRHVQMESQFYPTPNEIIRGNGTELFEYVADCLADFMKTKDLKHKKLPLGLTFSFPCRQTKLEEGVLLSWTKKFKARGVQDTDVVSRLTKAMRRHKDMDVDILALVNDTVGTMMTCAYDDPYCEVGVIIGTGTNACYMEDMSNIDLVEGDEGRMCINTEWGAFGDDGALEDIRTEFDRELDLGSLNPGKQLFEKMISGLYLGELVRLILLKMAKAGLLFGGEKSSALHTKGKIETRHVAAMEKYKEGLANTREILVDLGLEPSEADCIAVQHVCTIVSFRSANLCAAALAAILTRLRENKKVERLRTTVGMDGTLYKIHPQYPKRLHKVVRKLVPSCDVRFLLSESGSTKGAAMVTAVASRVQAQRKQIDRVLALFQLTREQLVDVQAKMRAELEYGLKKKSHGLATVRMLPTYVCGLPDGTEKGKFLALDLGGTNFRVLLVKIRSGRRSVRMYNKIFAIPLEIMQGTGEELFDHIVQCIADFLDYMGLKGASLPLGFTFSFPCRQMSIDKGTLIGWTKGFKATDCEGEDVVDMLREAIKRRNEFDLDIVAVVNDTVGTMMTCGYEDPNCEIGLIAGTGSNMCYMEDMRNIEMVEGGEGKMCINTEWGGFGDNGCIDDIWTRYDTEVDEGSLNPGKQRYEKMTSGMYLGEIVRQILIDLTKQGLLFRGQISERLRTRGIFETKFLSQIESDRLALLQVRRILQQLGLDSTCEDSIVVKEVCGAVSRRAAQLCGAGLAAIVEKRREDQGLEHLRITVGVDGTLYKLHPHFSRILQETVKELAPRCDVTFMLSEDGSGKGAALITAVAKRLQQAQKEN
# [17] = molecular target: DNA (cytosine-5)-methyltransferase 1 (Homo sapiens, UniProt P26358); test: DNMT1 methyltransferase inhibitors, confirmation, biochemical, fluorescent molecular beacon (AID 602386); type: functional
# Chain of DNA (cytosine-5)-methyltransferase 1 (P26358 whole entry): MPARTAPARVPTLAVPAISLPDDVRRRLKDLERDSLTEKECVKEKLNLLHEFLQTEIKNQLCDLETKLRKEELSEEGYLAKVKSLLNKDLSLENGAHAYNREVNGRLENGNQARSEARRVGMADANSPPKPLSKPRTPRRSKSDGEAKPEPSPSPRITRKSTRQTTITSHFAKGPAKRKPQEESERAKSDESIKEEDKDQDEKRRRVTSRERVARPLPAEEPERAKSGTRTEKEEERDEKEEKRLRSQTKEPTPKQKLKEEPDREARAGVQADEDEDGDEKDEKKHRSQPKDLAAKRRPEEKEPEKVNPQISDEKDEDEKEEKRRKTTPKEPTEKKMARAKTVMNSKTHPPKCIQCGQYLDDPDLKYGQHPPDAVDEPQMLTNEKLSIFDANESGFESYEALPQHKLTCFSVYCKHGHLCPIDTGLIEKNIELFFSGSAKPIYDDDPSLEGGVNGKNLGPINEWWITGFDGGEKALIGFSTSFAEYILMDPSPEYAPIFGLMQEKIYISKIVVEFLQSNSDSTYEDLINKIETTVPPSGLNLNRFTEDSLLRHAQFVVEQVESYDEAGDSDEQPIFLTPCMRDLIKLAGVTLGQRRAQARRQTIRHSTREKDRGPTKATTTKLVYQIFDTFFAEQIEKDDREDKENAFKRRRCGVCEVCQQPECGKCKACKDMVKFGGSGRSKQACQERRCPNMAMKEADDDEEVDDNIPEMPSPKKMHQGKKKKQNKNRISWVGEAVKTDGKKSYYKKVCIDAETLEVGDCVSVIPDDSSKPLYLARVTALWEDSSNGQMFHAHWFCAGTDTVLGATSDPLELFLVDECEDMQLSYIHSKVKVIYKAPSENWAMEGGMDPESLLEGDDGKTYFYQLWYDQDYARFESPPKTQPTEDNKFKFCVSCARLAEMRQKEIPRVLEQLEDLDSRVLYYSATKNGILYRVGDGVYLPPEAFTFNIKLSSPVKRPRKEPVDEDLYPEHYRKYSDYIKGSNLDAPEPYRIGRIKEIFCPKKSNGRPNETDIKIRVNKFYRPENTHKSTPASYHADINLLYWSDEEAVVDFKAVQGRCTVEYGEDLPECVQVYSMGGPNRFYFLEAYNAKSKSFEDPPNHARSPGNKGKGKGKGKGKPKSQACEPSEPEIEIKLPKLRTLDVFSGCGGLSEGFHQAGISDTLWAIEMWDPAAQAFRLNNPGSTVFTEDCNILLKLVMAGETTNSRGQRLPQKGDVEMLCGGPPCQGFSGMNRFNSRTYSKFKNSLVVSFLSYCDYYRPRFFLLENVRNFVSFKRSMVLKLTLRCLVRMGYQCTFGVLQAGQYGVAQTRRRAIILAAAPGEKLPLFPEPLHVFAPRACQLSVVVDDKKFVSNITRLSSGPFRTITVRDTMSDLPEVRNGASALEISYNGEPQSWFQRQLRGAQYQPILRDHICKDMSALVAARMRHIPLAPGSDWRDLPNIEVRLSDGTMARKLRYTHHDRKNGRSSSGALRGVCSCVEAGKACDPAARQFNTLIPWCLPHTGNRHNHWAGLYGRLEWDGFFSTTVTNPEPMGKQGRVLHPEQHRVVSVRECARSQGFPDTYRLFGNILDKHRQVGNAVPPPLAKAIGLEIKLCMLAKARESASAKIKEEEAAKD
# Cytochrome P450 3A4 = Cytochrome P450 3A4 (Homo sapiens, UniProt P08684); conditions: Potency;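 note: confirmatory qHTS run detecting inhibitors and substrates of CYP3A4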
# Chain of Cytochrome P450 3A4 (P08684 whole entry): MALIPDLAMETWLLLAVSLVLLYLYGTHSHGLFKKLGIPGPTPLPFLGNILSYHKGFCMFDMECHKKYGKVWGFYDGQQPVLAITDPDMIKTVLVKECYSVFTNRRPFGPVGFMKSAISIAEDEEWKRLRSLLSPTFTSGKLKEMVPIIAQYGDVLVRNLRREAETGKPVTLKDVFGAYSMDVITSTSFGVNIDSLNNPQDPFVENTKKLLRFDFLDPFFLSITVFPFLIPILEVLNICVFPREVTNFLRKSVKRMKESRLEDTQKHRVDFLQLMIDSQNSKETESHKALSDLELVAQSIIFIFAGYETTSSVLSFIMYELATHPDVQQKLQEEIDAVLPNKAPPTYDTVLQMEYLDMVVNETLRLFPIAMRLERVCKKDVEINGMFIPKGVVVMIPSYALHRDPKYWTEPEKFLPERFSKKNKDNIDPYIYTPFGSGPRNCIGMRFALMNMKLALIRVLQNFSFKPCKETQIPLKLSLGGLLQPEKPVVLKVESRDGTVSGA
# Cytochrome P450 2C9 = Cytochrome P450 2C9 (Homo sapiens, UniProt P11712); conditions: Potency
# Chain of Cytochrome P450 2C9 (P11712 whole entry): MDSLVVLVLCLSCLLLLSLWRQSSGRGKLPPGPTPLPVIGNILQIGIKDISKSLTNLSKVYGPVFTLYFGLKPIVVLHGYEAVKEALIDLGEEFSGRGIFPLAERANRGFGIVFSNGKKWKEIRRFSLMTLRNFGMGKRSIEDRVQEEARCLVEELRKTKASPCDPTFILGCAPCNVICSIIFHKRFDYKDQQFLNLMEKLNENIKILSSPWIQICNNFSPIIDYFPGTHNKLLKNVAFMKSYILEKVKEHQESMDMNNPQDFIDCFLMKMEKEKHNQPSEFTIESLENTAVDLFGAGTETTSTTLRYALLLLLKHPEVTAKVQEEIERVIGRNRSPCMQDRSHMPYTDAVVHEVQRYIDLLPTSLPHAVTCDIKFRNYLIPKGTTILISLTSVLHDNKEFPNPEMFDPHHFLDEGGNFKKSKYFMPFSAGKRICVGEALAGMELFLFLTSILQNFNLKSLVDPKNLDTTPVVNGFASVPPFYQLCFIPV
# [18] = molecular target: DNA dC->dU-editing enzyme APOBEC-3G (Homo sapiens, UniProt Q9HC16); test: Dose Response confirmation of small molecule APOBEC3G DNA Deaminase Inhibitors via a fluorescence-based single-stranded DNA deaminase assay. [Related pubchem assays (depositor defined):AID493012, AID493028]; type: functional
# Chain of DNA dC->dU-editing enzyme APOBEC-3G (Q9HC16 whole entry): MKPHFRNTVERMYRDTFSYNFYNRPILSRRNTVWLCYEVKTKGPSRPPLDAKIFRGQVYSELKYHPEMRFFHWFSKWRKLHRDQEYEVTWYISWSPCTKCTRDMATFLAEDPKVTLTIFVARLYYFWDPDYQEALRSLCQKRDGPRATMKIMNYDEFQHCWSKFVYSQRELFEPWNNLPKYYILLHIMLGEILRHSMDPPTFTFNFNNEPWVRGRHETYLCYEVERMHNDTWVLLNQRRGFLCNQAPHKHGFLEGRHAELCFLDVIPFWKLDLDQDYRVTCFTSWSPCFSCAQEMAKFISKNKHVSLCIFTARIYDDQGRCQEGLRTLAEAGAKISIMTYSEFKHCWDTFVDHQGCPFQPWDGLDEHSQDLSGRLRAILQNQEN
# [19] = molecular target: T2, Polyadenylate-binding protein 1 (Homo sapiens, UniProt P11940); test: PABP1 MLLE–PAM2 interaction inhibitors, dose response, miRNA deadenylation inhibitor project, biochemical, fluorescence polarization, Cy5-PAM2 peptide, secondary (AID 602260); type: functional; conditions: read-out: IC50_Mean
# T2 sequence (P11940 whole entry): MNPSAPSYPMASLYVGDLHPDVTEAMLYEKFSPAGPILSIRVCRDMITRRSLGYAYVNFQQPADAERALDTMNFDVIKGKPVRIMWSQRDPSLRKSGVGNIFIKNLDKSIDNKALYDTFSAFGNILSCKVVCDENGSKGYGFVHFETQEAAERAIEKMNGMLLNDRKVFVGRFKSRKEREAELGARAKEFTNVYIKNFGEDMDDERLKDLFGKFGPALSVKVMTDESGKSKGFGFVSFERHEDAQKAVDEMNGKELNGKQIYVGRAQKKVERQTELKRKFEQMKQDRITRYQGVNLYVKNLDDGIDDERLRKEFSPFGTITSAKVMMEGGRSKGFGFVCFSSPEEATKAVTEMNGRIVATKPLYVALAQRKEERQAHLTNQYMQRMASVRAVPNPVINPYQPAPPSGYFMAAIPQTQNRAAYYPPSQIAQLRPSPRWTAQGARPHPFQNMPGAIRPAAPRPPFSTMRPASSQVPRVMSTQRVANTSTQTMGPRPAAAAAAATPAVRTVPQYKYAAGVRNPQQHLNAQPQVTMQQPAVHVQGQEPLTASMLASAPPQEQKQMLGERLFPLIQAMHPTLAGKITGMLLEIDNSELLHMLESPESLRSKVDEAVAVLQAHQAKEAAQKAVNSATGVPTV
# [20] = molecular target: T2, Polyadenylate-binding protein 1; test: PABP1 MLLE–PAM2 binding inhibitor potency, dose response, biochemical, fluorescence polarization, FITC-PAM2 peptide (AID 602259); type: functional; conditions: read-out: IC50_Mean
structure (smiles),measurement,setting,value
O=C(O)c1cccc(COc2ccc3c(c2)CCC3)c1,EC50,[1],0.212 µM (active)
same,EC50,[2],0.233 µM (active)
same,EC50,cells,0.538 µM (active)
same,EC50,[3],< 0.1 µM (active)
same,EC50,[4],0.376 µM (inconclusive)
same,EC50,[5],< 0.1 µM (active)
same,IC50,[6],> 39.8 µM (not active)
same,EC50,[7],0.197 µM (active)
same,AC50,[8],1.37 µM (active)
same,AC50,[9],0.684 µM (active)
same,AC50,[10],5.09 µM (active)
same,AC50,Paired box protein Pax-8,3.79 µM (active)
same,AC50,[11],1.68 µM (active)
same,AC50,[12],1.47 µM (active)
same,AC50,[13],> 52 µM (inactive)
same,AC50,[14],0.326 µM (active)
same,AC50,[15],0.383 µM (active)
same,AC50,[16],> 52 µM (inactive)
Cc1ccc(N2C(=O)NC(=O)/C(=C\c3cc(C)n(-c4sc5c(c4C#N)CCCC5)c3C)C2=O)cc1,IC50,Hexokinase HKDC1,14.1 µM (active)
same,IC50,[17],11.1 µM (active)
CC1CCC2C(=O)N3C(CCC(C)C3c3ccccc3Br)C(=O)N2C1c1ccc(C#CCN(C)C)cc1 (stereo unspecified),AC50,Cytochrome P450 3A4,3.16 µM (inconclusive)
same,AC50,Cytochrome P450 2C9,3.98 µM (inconclusive)
CC(C)[C@@H](CC(=O)N[C@@H]1CCCC[C@H]1C(=O)N[C@H](CC(=O)N[C@@H](CCC(=O)O)CC(=O)O)Cc1c[nH]c2ccccc12)NC(=O)C[C@H](CO)NC(=O)[C@@H]1CNCC[C@H]1N,AC50,Cytochrome P450 2C9,31.6 µM (inconclusive)
CCOC(=O)c1ccc(NC(=O)CC2Sc3ncnn3C2=O)cc1 (stereo unspecified),IC50,[18],61.8 µM (active)
same,IC50,[19],> 66 µM (inactive)
same,IC50,[20],> 66 µM (inactive)
